# According to the supplement of paper PMC6045584:
# ± gives the standard deviation of the averaged measurements.
# Columns and labels:
# [1] = compound: T1, COc1cc2ncnc(Nc3ccc(F)c(Cl)c3)c2cc1OCCCN1CCOCC1 [GEFITINIB]; test: surviving fraction relative to DMSO-only wells; higher = less growth inhibition; settings: exposure time: 5 days
# Summary of the method: (§1)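 After seeding at 250–500 cells per well in 384-well plates and a 24-hour wait, log-phase tumour cell lines were exposed without interruption for five days to inhibitors at 0.5, 1, 5, 10, 50, 100, 500 and 1000 nM. CellTiter-Glo luminescence was recorded after 10 minutes at room temperature. Viability is reported as surviving fraction, the luminescence normalised to the median of DMSO-only wells.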
# [2] = compound: T2, C[C@]1(O)C[C@@H](c2nc(-c3ccc4ccc(-c5ccccc5)nc4c3)c3c(N)nccn32)C1 [OSI-906]; test: as above; settings: exposure time: 5 days
# Summary of the method: as §1
# [3] = compound: T3, Cc1ccc(-c2cc(C(F)(F)F)nn2-c2ccc(S(N)(=O)=O)cc2)cc1 [CELECOXIB]; test: as above; settings: exposure time: 5 days
# Summary of the method: as §1
# [4] = compound: T4, O=C(O)C1(C(=O)O)CCC1.[NH2-].[NH2-].[Pt+2] [CARBOPLATIN]; test: as above; settings: exposure time: 5 days
# Summary of the method: as §1
# [5] = compound: CC(=O)NCC(=O)N1[C@@H]2CC[C@H]1c1ccc(Nc3ncc(C(F)(F)F)c(NC4CCC4)n3)cc12; test: area under dose-response curve of surviving fraction (unscaled, Aref=0) (surviving fraction x log10(nM)); higher = more resistant; settings: exposure time: 5 days; dose range 0.5-1000 nM
# Summary of the method: (§2)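 Each tumour cell line was screened three times in 384-well plates, receiving eight inhibitor concentrations from 0.5 to 1000 nM for five days. CellTiter-Glo luminescence gave viability, normalised to DMSO-only wells. Using the drc R package, surviving fractions were fitted with 3-parameter logistic dose-response curves, and the unscaled activity area over log10 dose (Aref = 0) was taken as the area under the curve.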
# [6] = compound: CC(=O)O[C@H]1C(=O)[C@@]2(C)[C@H]([C@H](OC(=O)c3ccccc3)[C@]3(O)C[C@H](OC(=O)[C@H](O)[C@@H](NC(=O)c4ccccc4)c4ccccc4)C(C)=C1C3(C)C)[C@]1(OC(C)=O)CO[C@@H]1C[C@@H]2O [PACLITAXEL]; test: as above; settings: exposure time: 5 days; dose range 0.5-1000 nM
# Summary of the method: as §2
# [7] = compound: CC(=O)c1c(C)c2cnc(Nc3ccc(N4CCNCC4)cn3)nc2n(C2CCCC2)c1=O; test: as above; settings: exposure time: 5 days; dose range 0.5-1000 nM
# Summary of the method: as §2
# [8] = compound: CC[C@@]1(O)C(=O)OCc2c1cc1n(c2=O)Cc2cc3ccccc3nc2-1 [CAMPTOTHECIN]; test: as above; settings: exposure time: 5 days; dose range 0.5-1000 nM
# Summary of the method: as §2
# [9] = compound: COCC[n+]1c2c(n(Cc3cnccn3)c1C)C(=O)c1ccccc1C2=O [YM155]; test: as above; settings: exposure time: 5 days; dose range 0.5-1000 nM
# Summary of the method: as §2
# [10] = compound: T1, GEFITINIB; test: as above; settings: exposure time: 5 days; dose range 0.5-1000 nM
# Summary of the method: as §2
# [11] = compound: T2, OSI-906; test: as above; settings: exposure time: 5 days; dose range 0.5-1000 nM
# Summary of the method: as §2
# [12] = compound: T3, CELECOXIB; test: as above; settings: exposure time: 5 days; dose range 0.5-1000 nM
# Summary of the method: as §2
# [13] = compound: T4, CARBOPLATIN; test: as above; settings: exposure time: 5 days; dose range 0.5-1000 nM
# Summary of the method: as §2
test system,measurement,setting,value
CAL120 BREAST,surviving fraction,[1]; 0.5 nM,0.964 ± 0.046
same,surviving fraction,[1]; 1 nM,0.965 ± 0.031
same,surviving fraction,[1]; 5 nM,0.968 ± 0.025
same,surviving fraction,[1]; 10 nM,0.956 ± 0.039
same,surviving fraction,[1]; 50 nM,1.016 ± 0.0095
same,surviving fraction,[1]; 100 nM,0.985 ± 0.031
same,surviving fraction,[1]; 500 nM,0.995 ± 0.035
same,surviving fraction,[1]; 1000 nM,0.93 ± 0.042
same,surviving fraction,[2]; 0.5 nM,0.895 ± 0.052
same,surviving fraction,[2]; 1 nM,0.907 ± 0.054
same,surviving fraction,[2]; 5 nM,0.937 ± 0.041
same,surviving fraction,[2]; 10 nM,0.942 ± 0.026
same,surviving fraction,[2]; 50 nM,0.901 ± 0.04
same,surviving fraction,[2]; 100 nM,0.9 ± 0.066
same,surviving fraction,[2]; 500 nM,0.895 ± 0.046
same,surviving fraction,[2]; 1000 nM,0.893 ± 0.058
same,surviving fraction,[3]; 0.5 nM,0.962 ± 0.045
same,surviving fraction,[3]; 1 nM,0.979 ± 0.039
same,surviving fraction,[3]; 5 nM,0.964 ± 0.067
same,surviving fraction,[3]; 10 nM,0.99 ± 0.049
same,surviving fraction,[3]; 50 nM,1 ± 0.04
same,surviving fraction,[3]; 100 nM,1.01 ± 0.032
same,surviving fraction,[3]; 500 nM,0.995 ± 0.085
same,surviving fraction,[3]; 1000 nM,1 ± 0.011
same,surviving fraction,[4]; 0.5 nM,1.02 ± 0.044
same,surviving fraction,[4]; 1 nM,0.927 ± 0.023
same,surviving fraction,[4]; 5 nM,1.02 ± 0.04
same,surviving fraction,[4]; 10 nM,0.977 ± 0.027
same,surviving fraction,[4]; 50 nM,1.02 ± 0.044
same,surviving fraction,[4]; 100 nM,0.993 ± 0.033
same,surviving fraction,[4]; 500 nM,0.986 ± 0.04
same,surviving fraction,[4]; 1000 nM,0.976 ± 0.034
same,area under dose-response curve,[5],2.64
same,area under dose-response curve,[6],0.641
same,area under dose-response curve,[7],3.17
same,area under dose-response curve,[8],1.05
same,area under dose-response curve,[9],0.732
same,area under dose-response curve,[10],3.22
same,area under dose-response curve,[11],3
same,area under dose-response curve,[12],3.26
same,area under dose-response curve,[13],3.13
